Like-named read-outs stand apart in the source and are kept apart here.
How the values were obtained:
Assay in all cases: cell-based
hNav1.4 = hNav1.4 (Homo sapiens, UniProt P35499); settings: for IC50: PatchXpress, read-out: PX hNav1.4 Tonic IC50
hNav1.5 = hNav1.5 (Homo sapiens, UniProt Q14524); settings: PatchXpress, read-out: PX hNav1.5 Tonic IC50
hNav1.7 = hNav1.7 (Homo sapiens, UniProt Q15858); assay type: cell-based; settings: PatchXpress, read-out: PX hNav1.7 Tonic IC50
[1] = * = at high concentrations compound would wash off slowly or not at all

Chain of hNav1.7 (Q15858 whole entry): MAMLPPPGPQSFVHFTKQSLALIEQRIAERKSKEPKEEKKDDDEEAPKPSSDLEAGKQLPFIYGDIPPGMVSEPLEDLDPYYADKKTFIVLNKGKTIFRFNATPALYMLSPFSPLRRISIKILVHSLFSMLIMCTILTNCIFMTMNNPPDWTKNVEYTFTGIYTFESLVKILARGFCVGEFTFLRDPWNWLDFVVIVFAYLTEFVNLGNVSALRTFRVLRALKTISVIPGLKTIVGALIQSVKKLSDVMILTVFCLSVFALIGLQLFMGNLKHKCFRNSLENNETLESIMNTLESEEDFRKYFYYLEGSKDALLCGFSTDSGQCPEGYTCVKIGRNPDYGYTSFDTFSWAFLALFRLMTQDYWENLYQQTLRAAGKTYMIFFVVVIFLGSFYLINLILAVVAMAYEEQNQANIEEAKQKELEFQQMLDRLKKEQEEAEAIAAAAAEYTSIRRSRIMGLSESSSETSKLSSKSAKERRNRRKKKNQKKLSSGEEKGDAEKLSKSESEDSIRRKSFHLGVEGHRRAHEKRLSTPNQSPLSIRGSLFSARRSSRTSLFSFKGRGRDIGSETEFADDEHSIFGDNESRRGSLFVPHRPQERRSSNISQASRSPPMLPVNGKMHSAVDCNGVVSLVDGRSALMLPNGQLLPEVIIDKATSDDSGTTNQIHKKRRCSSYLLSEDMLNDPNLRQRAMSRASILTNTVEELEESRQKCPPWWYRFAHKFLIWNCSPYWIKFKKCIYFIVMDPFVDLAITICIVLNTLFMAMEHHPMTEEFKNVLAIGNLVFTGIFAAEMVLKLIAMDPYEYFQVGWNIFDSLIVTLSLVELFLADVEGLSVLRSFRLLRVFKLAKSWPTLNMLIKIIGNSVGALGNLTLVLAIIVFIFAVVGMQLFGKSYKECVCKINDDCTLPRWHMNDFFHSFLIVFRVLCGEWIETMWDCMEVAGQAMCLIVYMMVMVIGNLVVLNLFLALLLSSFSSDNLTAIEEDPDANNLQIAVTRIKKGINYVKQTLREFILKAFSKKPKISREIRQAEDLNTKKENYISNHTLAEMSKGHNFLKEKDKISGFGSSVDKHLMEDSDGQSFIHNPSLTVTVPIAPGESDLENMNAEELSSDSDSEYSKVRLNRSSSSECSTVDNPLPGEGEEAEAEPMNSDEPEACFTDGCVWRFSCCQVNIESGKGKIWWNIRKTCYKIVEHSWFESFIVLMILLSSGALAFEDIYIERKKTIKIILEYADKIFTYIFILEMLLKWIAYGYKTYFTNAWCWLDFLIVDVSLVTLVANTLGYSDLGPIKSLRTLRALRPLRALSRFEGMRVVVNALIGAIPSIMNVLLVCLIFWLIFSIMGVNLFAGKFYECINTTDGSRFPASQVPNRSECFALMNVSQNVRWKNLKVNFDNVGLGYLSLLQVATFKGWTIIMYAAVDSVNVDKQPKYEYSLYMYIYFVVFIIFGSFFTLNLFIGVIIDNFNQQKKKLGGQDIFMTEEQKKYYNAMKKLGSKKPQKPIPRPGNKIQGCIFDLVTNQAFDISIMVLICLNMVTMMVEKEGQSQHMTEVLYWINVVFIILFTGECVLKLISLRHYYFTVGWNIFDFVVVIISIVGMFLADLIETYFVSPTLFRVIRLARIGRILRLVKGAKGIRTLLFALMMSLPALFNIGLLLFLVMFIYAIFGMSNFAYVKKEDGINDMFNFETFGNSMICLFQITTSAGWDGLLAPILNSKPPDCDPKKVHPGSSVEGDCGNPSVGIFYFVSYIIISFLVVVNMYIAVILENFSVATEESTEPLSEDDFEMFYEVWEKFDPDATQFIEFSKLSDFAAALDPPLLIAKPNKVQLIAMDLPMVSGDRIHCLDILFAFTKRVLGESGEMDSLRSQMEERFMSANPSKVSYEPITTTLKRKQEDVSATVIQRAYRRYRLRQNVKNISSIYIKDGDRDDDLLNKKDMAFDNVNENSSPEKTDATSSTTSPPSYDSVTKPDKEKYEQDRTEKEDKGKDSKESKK
Chain of hNav1.5 (Q14524 whole entry): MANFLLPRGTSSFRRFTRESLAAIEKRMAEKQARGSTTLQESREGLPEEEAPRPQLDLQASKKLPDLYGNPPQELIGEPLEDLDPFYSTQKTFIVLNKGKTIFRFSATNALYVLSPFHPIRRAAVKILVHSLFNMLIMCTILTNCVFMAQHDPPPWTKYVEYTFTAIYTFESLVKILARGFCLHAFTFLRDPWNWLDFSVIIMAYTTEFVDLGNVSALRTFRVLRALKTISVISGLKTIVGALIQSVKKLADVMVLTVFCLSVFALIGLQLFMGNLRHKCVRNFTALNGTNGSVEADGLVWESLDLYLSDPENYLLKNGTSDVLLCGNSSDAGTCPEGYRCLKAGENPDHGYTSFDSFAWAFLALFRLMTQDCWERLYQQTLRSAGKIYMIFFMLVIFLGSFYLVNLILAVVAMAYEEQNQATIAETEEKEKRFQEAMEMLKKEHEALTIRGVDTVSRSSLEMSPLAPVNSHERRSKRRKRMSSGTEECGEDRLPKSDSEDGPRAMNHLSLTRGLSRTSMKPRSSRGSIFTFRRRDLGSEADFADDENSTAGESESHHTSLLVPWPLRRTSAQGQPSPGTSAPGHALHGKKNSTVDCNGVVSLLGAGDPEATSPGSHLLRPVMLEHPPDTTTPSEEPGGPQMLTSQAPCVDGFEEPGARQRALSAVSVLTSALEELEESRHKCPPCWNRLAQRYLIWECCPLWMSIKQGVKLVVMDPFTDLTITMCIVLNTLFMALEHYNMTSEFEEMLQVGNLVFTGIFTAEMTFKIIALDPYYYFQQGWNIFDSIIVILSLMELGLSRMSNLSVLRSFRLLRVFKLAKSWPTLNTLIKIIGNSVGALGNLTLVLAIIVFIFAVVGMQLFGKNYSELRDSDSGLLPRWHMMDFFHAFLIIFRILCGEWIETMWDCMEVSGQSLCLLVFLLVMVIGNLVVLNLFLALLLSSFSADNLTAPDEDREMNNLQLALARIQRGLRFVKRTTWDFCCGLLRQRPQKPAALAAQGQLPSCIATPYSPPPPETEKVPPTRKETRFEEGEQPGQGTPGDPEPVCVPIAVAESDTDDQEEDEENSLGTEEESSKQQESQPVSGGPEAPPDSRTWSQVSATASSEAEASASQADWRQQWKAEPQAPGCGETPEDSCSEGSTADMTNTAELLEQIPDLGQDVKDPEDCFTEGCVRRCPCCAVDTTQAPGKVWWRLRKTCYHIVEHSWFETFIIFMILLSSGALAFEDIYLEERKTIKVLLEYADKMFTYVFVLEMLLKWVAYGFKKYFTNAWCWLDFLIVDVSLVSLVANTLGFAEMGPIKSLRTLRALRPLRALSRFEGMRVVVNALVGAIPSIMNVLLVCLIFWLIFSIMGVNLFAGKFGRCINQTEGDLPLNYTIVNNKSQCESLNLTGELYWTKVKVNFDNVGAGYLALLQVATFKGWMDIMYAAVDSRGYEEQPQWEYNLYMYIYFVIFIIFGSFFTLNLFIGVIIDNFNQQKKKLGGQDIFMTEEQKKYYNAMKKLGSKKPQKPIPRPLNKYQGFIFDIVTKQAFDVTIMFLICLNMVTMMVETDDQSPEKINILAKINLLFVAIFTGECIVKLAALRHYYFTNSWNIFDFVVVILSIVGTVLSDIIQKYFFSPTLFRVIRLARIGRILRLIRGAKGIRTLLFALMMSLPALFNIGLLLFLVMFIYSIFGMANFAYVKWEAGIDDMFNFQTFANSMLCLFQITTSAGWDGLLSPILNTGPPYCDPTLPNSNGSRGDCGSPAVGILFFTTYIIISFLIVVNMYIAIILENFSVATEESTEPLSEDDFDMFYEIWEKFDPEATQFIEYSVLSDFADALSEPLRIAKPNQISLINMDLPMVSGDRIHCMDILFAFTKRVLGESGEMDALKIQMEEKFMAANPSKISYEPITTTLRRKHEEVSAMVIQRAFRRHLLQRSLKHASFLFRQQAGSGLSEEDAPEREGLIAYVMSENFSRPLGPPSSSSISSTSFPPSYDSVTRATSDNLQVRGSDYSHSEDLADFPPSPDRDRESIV

Row | SMILES | IC50 (hNav1.4; tonic block) [nM] | IC50 (hNav1.5; tonic block) [nM] | IC50 (hNav1.7; tonic block) [nM] | Nav1.4/Nav1.7 (hNav1.4; ratio of PX tonic IC50 values) | IC50 (hNav1.4; [1]) [nM] | Nav1.4/Nav1.7 (hNav1.4; ratio of PX IC50 values) | IC50 (hNav1.5; [1]) [nM] | IC50 (hNav1.7; [1]) [nM]
1 | C#CC[C@@H]1NC(=O)[C@H](CC(=O)O)NC(=O)[C@@H]2CSSC[C@@H]3NC(=O)[C@H](CCCNC(=N)N)NC(=O)[C@H](CC(C)C)NC(=O)CNC(=O)[C@H](CCC(=O)O)NC(=O)[C@H](CSSC[C@H](NC(=O)[C@@H](N)Cc4ccc(O)cc4)C(=O)N[C@@H](CCC(N)=O)C(=O)N[C@@H](CCCCN)C(=O)N[C@@H](Cc4c[nH]c5ccccc45)C(=O)N[C@@H](CCCC)C(=O)N[C@@H](Cc4c[nH]c5ccccc45)C(=O)N[C@@H]([C@@H](C)O)C(=O)N2)NC(=O)[C@H](CSSC[C@@H](C(=O)N[C@@H](CCCNC(=N)N)C(=O)N[C@@H](CCCCN)C(=O)N[C@@H](CCC(=O)O)C(=O)N[C@H](C(N)=O)[C@@H](C)CC)NC(=O)[C@H](Cc2c[nH]c4ccccc24)NC(=O)[C@H](CC(C)C)NC(=O)[C@H](CCCCN)NC3=O)NC(=O)[C@H](C)NC(=O)[C@H](CCCNC(=N)N)NC(=O)[C@H](CCCCN)NC1=O [compound 330] | 222 | 5980 | 0.763 | – | – | – | – | –
2 | C#CC[C@@H]1NC(=O)[C@H](CCCNC(=N)N)NC(=O)[C@H](CCCCN)NC(=O)[C@H](CO)NC(=O)[C@H](CC(=O)O)NC(=O)[C@@H]2CSSC[C@@H]3NC(=O)[C@H](CCCNC(=N)N)NC(=O)[C@H](CC(C)C)NC(=O)CNC(=O)[C@H](CCC(=O)O)NC(=O)[C@H](CSSC[C@H](NC(=O)[C@@H](N)Cc4ccc(O)cc4)C(=O)N[C@@H](CCC(N)=O)C(=O)N[C@@H](CCCCN)C(=O)N[C@@H](Cc4c[nH]c5ccccc45)C(=O)N[C@@H](CCCC)C(=O)N[C@@H](Cc4c[nH]c5ccccc45)C(=O)N[C@@H]([C@@H](C)O)C(=O)N2)NC(=O)[C@H](CSSC[C@@H](C(=O)N[C@@H](CCCNC(=N)N)C(=O)N[C@@H](CCCCN)C(=O)N[C@@H](CCC(=O)O)C(=O)N[C@H](C(N)=O)[C@@H](C)CC)NC(=O)[C@H](Cc2c[nH]c4ccccc24)NC(=O)[C@H](CC(C)C)NC(=O)[C@H](CCCCN)NC3=O)NC1=O [compound 331] | 105 | 3510 | 0.493 | – | – | – | – | –
3 | C#CC[C@@H]1NC(=O)[C@@H]2CSSC[C@H](NC(=O)[C@@H](N)Cc3ccc(O)cc3)C(=O)N[C@@H](CCC(N)=O)C(=O)N[C@@H](CCCCN)C(=O)N[C@@H](Cc3c[nH]c4ccccc34)C(=O)N[C@@H](CCCC)C(=O)N[C@@H](Cc3c[nH]c4ccccc34)C(=O)N[C@@H]([C@@H](C)O)C(=O)N[C@H]3CSSC[C@H](NC(=O)[C@H](CCCNC(=N)N)NC(=O)[C@H](CC(C)C)NC(=O)CNC1=O)C(=O)N[C@@H](CCCCN)C(=O)N[C@@H](CC(C)C)C(=O)N[C@@H](Cc1c[nH]c4ccccc14)C(=O)N[C@H](C(=O)N[C@@H](CCCNC(=N)N)C(=O)N[C@@H](CCCCN)C(=O)N[C@@H](CCC(=O)O)C(=O)N[C@H](C(N)=O)[C@@H](C)CC)CSSC[C@H](NC(=O)[C@H](C)NC(=O)[C@H](CCCNC(=N)N)NC(=O)[C@H](CCCCN)NC(=O)[C@H](CO)NC(=O)[C@H](CC(=O)O)NC3=O)C(=O)N2 [compound 332] | 125 | 3080 | 3.63 | 34 | – | – | – | –
4 | C#CC[C@H](N)C(=O)N[C@H]1CSSC[C@@H]2NC(=O)[C@@H]3CSSC[C@@H](C(=O)N[C@@H](CCCNC(=N)N)C(=O)N[C@@H](CCCCN)C(=O)N[C@H](C(=O)N[C@H](C(N)=O)[C@@H](C)CC)[C@@H](C)CC)NC(=O)[C@H](Cc4c[nH]c5ccccc45)NC(=O)[C@H](CC(C)C)NC(=O)[C@H](CCCCN)NC(=O)[C@H](CSSC[C@H](NC(=O)[C@H]([C@@H](C)O)NC(=O)[C@H](Cc4c[nH]c5ccccc45)NC(=O)[C@H](CCCC)NC(=O)[C@H](Cc4c[nH]c5ccccc45)NC(=O)[C@H](CCCCN)NC(=O)[C@H](CCC(N)=O)NC1=O)C(=O)N[C@@H](CC(=O)O)C(=O)N[C@@H](CO)C(=O)N[C@@H](CCCCN)C(=O)N[C@@H](CCCNC(=N)N)C(=O)N[C@@H](C)C(=O)N3)NC(=O)[C@H](CCC(=O)O)NC(=O)[C@H](CC(C)C)NC(=O)CNC(=O)[C@H](CCC(=O)O)NC2=O [compound 343] | 790 | 2660 | 2.63 | 300 | – | – | – | –
5 | C#CC[C@@H]1NC(=O)[C@H](CC(=O)O)NC(=O)[C@@H]2CSSC[C@@H]3NC(=O)[C@H](CCC(=O)O)NC(=O)[C@H](CC(C)C)NC(=O)CNC(=O)[C@H](CCC(=O)O)NC(=O)[C@H](CSSC[C@H](NC(=O)[C@@H](N)Cc4ccc(O)cc4)C(=O)N[C@@H](CCC(N)=O)C(=O)N[C@@H](CCCCN)C(=O)N[C@@H](Cc4c[nH]c5ccccc45)C(=O)N[C@@H](CCCC)C(=O)N[C@@H](Cc4c[nH]c5ccccc45)C(=O)N[C@@H]([C@@H](C)O)C(=O)N2)NC(=O)[C@H](CSSC[C@@H](C(=O)N[C@@H](CCCNC(=N)N)C(=O)N[C@@H](CCCCN)C(=O)N[C@H](C(=O)N[C@H](C(N)=O)[C@@H](C)CC)[C@@H](C)CC)NC(=O)[C@H](Cc2c[nH]c4ccccc24)NC(=O)[C@H](CC(C)C)NC(=O)[C@H](CCCCN)NC3=O)NC(=O)[C@H](C)NC(=O)[C@H](CCCNC(=N)N)NC(=O)[C@H](CCCCN)NC1=O [compound 344] | 4220 | 3550 | 18.4 | 230 | – | – | – | –
6 | C#CC[C@@H]1NC(=O)[C@H](CCCNC(=N)N)NC(=O)[C@H](CCCCN)NC(=O)[C@H](CO)NC(=O)[C@H](CC(=O)O)NC(=O)[C@@H]2CSSC[C@@H]3NC(=O)[C@H](CCC(=O)O)NC(=O)[C@H](CC(C)C)NC(=O)CNC(=O)[C@H](CCC(=O)O)NC(=O)[C@H](CSSC[C@H](NC(=O)[C@@H](N)Cc4ccc(O)cc4)C(=O)N[C@@H](CCC(N)=O)C(=O)N[C@@H](CCCCN)C(=O)N[C@@H](Cc4c[nH]c5ccccc45)C(=O)N[C@@H](CCCC)C(=O)N[C@@H](Cc4c[nH]c5ccccc45)C(=O)N[C@@H]([C@@H](C)O)C(=O)N2)NC(=O)[C@H](CSSC[C@@H](C(=O)N[C@@H](CCCNC(=N)N)C(=O)N[C@@H](CCCCN)C(=O)N[C@H](C(=O)N[C@H](C(N)=O)[C@@H](C)CC)[C@@H](C)CC)NC(=O)[C@H](Cc2c[nH]c4ccccc24)NC(=O)[C@H](CC(C)C)NC(=O)[C@H](CCCCN)NC3=O)NC1=O [compound 345] | 1660 | 4570 | 7.16 | – | – | – | – | –
7 | C#CC[C@@H]1NC(=O)[C@@H]2CSSC[C@H](NC(=O)[C@@H](N)Cc3ccc(O)cc3)C(=O)N[C@@H](CCC(N)=O)C(=O)N[C@@H](CCCCN)C(=O)N[C@@H](Cc3c[nH]c4ccccc34)C(=O)N[C@@H](CCCC)C(=O)N[C@@H](Cc3c[nH]c4ccccc34)C(=O)N[C@@H]([C@@H](C)O)C(=O)N[C@H]3CSSC[C@H](NC(=O)[C@H](CCC(=O)O)NC(=O)[C@H](CC(C)C)NC(=O)CNC1=O)C(=O)N[C@@H](CCCCN)C(=O)N[C@@H](CC(C)C)C(=O)N[C@@H](Cc1c[nH]c4ccccc14)C(=O)N[C@H](C(=O)N[C@@H](CCCNC(=N)N)C(=O)N[C@@H](CCCCN)C(=O)N[C@H](C(=O)N[C@H](C(N)=O)[C@@H](C)CC)[C@@H](C)CC)CSSC[C@H](NC(=O)[C@H](C)NC(=O)[C@H](CCCNC(=N)N)NC(=O)[C@H](CCCCN)NC(=O)[C@H](CO)NC(=O)[C@H](CC(=O)O)NC3=O)C(=O)N2 [compound 346] | 291 | 1020 | 9.95 | 29 | – | – | – | –
8 | CCCC[C@@H]1NC(=O)[C@H](Cc2c[nH]c3ccccc23)NC(=O)[C@H](CCCCN)NC(=O)[C@H](CCC(N)=O)NC(=O)[C@@H](NC(=O)[C@H](Cc2ccc(O)cc2)NC(=O)[C@@H](N)CCCC)CSSC[C@@H]2NC(=O)[C@@H]3CSSC[C@@H](C(=O)N[C@@H](CCCNC(=N)N)C(=O)N[C@@H](CCCCN)C(=O)N[C@H](C(=O)N[C@H](C(N)=O)[C@@H](C)CC)[C@@H](C)CC)NC(=O)[C@H](Cc4c[nH]c5ccccc45)NC(=O)[C@H](CC(C)C)NC(=O)[C@H](CCCCN)NC(=O)[C@H](CSSC[C@H](NC(=O)[C@H]([C@@H](C)O)NC(=O)[C@H](Cc4c[nH]c5ccccc45)NC1=O)C(=O)N[C@@H](CC(=O)O)C(=O)N[C@@H](CO)C(=O)N[C@@H](CCCCN)C(=O)N[C@@H](CCCNC(=N)N)C(=O)N[C@@H](C)C(=O)N3)NC(=O)[C@H](CCCNC(=N)N)NC(=O)[C@H](CC(C)C)NC(=O)CNC(=O)[C@H](CCC(=O)O)NC2=O [compound 370] | – | – | – | – | 4.6 | 21 | 830 | 0.223
9 | CCCC[C@@H]1NC(=O)[C@H](Cc2c[nH]c3ccccc23)NC(=O)[C@H](CCCCN)NC(=O)[C@H](CCC(N)=O)NC(=O)[C@@H](NC(=O)[C@H](Cc2ccc(O)cc2)NC(=O)[C@@H](C)N)CSSC[C@@H]2NC(=O)[C@@H]3CSSC[C@@H](C(=O)N[C@@H](CCCNC(=N)N)C(=O)N[C@@H](CCCCN)C(=O)N[C@H](C(=O)N[C@H](C(N)=O)[C@@H](C)CC)[C@@H](C)CC)NC(=O)[C@H](Cc4c[nH]c5ccccc45)NC(=O)[C@H](CC(C)C)NC(=O)[C@H](CCCCN)NC(=O)[C@H](CSSC[C@H](NC(=O)[C@H]([C@@H](C)O)NC(=O)[C@H](Cc4c[nH]c5ccccc45)NC1=O)C(=O)N[C@@H](CC(=O)O)C(=O)N[C@@H](CO)C(=O)N[C@@H](CCCCN)C(=O)N[C@@H](CCCNC(=N)N)C(=O)N[C@@H](C)C(=O)N3)NC(=O)[C@H](CCCNC(=N)N)NC(=O)[C@H](CC(C)C)NC(=O)CNC(=O)[C@H](CCC(=O)O)NC2=O [compound 372] | – | – | – | – | 5.1 | 5 | 730 | 0.957

From patent US9636418B2 (priority 2013, dated 2017)
